Measured values published in patent US20110206792A1, “COMPOSITIONS COMPRISING VITAMINS” (priority 2008, published 2011).

Experiment: Stability studies for Melatonin, Resveratrol and L-ascorbic acid in cosmetic serum (HPLC with diode array detection, 55 days)
Format: physicochemical
Conditions: for concentration in the mixed formulation: formulation containing all three compounds, unchanged over 55 days; for change of concentration/percentage over 55 days: mixed versus single component formulation, 25° C. and 40° C.
Experimental: Stability studies for Melatonin, Resveratrol and L-ascorbic acid in cosmetic serum Object of this work was the studies related to the stability of Melatonin, Resveratrol and L-ascorbic acid when individually present in formulation in comparison with a formulation in which they are simultaneously mixed together, in order to explore the potential stabilization of L-ascorbic acid by Melatonin. The stability studies were performed at 25° C. (room temperature) and 40° C. (oven) for 55 days. Four formulations were analyzed: one mixture containing the three compounds together plus 3 formulations, which individually contained the three compounds. The excipients were all the same in the four formulations. The method employed to follow formulation stability is an HPLC method with diode array detection, under gradient conditions, as specified in the previous report. The results of these studies are shown in the graphs reported in FIGS. 10, 11 and 12 as well as in the following Tables 1, 2 and 3 where the percentages of the three compounds in the formulation (p/p) are plotted against time. In particular, the percentages were determined over 55 days, by comparison with reference standard compounds.

[1] = mix (three compounds together), T = 25° C., day 0
[2] = mix (three compounds together), T = 25° C., day 2
[3] = mix (three compounds together), T = 25° C., day 50
[4] = mix (three compounds together), T = 25° C., day 55
[5] = mix (three compounds together), T = 40° C., day 0
[6] = mix (three compounds together), T = 40° C., day 42
[7] = mix (three compounds together), T = 40° C., day 44
[8] = mix (three compounds together), T = 40° C., day 48
[9] = mix (three compounds together), T = 40° C., day 51
[10] = mix (three compounds together), T = 40° C., day 55
[11] = single component formulation, T = 25° C., day 0
[12] = single component formulation, T = 25° C., day 2
[13] = single component formulation, T = 25° C., day 44
[14] = single component formulation, T = 25° C., day 48
[15] = single component formulation, T = 25° C., day 50
[16] = single component formulation, T = 25° C., day 55
[17] = single component formulation, T = 40° C., day 0
[18] = single component formulation, T = 40° C., day 42
[19] = single component formulation, T = 40° C., day 48
[20] = single component formulation, T = 40° C., day 51
[21] = single component formulation, T = 40° C., day 55
[22] = mix (three compounds together), T = 25° C., day 44
[23] = mix (three compounds together), T = 25° C., day 48
[24] = single component formulation, T = 40° C., day 44

concentration in the mixed formulation	percentage of the compound in the formulation (p/p) [1]	percentage of the compound in the formulation (p/p) [2]	percentage of the compound in the formulation (p/p) [3]	percentage of the compound in the formulation (p/p) [4]	percentage of the compound in the formulation (p/p) [5]	percentage of the compound in the formulation (p/p) [6]	percentage of the compound in the formulation (p/p) [7]	percentage of the compound in the formulation (p/p) [8]	percentage of the compound in the formulation (p/p) [9]	percentage of the compound in the formulation (p/p) [10]	percentage of the compound in the formulation (p/p) [11]	percentage of the compound in the formulation (p/p) [12]	percentage of the compound in the formulation (p/p) [13]	percentage of the compound in the formulation (p/p) [14]	percentage of the compound in the formulation (p/p) [15]	percentage of the compound in the formulation (p/p) [16]	percentage of the compound in the formulation (p/p) [17]	percentage of the compound in the formulation (p/p) [18]	percentage of the compound in the formulation (p/p) [19]	SMILES	other results
14.5%	15.34%	14.10%	15.10%	15.00%	14.35%	14.30%	15.13%	13.50%	14.96%	15.00%	13.40%	13.32%	8.80%	10.80%	10.50%	10.43%	14.86%	8.46%	8.60%	O=C1O[C@H]([C@@H](O)CO)C(O)=C1O [L-ascorbic acid]	change in L-ascorbic acid concentration (formulation containing all the three ingredients, 55 days): no change; loss of L-ascorbic acid (single component formulation, 25° C., 55 days): 22%; loss of L-ascorbic acid (single component formulation, 40° C., 55 days): 36%; percentage of the compound in the formulation (p/p) [20]: 9.00%; percentage of the compound in the formulation (p/p) [21]: 9.60%
0.20%	0.20%	0.25%	0.23%	0.20%	0.18%	0.17%	0.18%	0.14%	0.18%	0.20%	0.28%	0.33%	0.30%	0.26%	0.31%	0.30%	0.26%	0.25%	0.29%	COc1ccc2[nH]cc(CCNC(C)=O)c2c1 [Melatonin]	percentage of the compound in the formulation (p/p) [22]: 0.20%; percentage of the compound in the formulation (p/p) [23]: 0.20%; change of concentration/percentage over 55 days: does not change much; concentration in the single component formulation (same concentration found after 55 days of storage at 25° C. and 40° C.): 0.28%; percentage of the compound in the formulation (p/p) [24]: 0.25%; percentage of the compound in the formulation (p/p) [20]: 0.29%; percentage of the compound in the formulation (p/p) [21]: 0.28%
0.20%	0.20%	0.20%	0.14%	0.16%	0.20%	0.18%	0.18%	0.20%	0.16%	0.18%	0.22%	0.19%	0.17%	0.20%	0.17%	0.17%	0.22%	0.16%	0.18%	Oc1ccc(C=Cc2cc(O)cc(O)c2)cc1 [Resveratrol]	degradation (in 55 days, in all the conditions, formulations kept at 25° C. and 40° C.): approximately 10%; percentage of the compound in the formulation (p/p) [22]: 0.14%; percentage of the compound in the formulation (p/p) [23]: 0.20%; change of concentration/percentage over 55 days: does not change significantly; percentage of the compound in the formulation (p/p) (single component formulation, T = 40° C., day 2): 0.19%; percentage of the compound in the formulation (p/p) [24]: 0.20%; percentage of the compound in the formulation (p/p) [20]: 0.20%; percentage of the compound in the formulation (p/p) [21]: 0.20%
